In US6162815A, “RXR-agonist polycyclic aromatic compounds, pharmaceutical/cosmetic compositions comprising said compound and uses thereof” (Centre International de Recherches Dermatologiques Galderma, priority 1994, dated 2000):

Experiments:
RXR [1] = test: RXR transactivation test; type: cell-based; conditions: for RXR transactivation test (%): tested compound at 10 μM, relative to control 6-[1-(3,5,5,8,8-pentamethyl-5,6,7,8-tetrahydronaphthalen-2-yl)cyclopropyl]nicotinic acid at 10^-8 M; for AC50: read-out: RXR transactivation AC 50
Experimental: We further tested compounds according to the claimed invention to ascertain their activity in assays that identify molecules as RXR-agonists. […] These references are incorporated by reference in their entirety herein.
The percentage values in the Table correspond to the percentage of activities of the tested compound at a concentration of 10 μM. This is relative to a control compound, 6-[1-(3,5,5,8,8-pentamethyl-5,6,7,8-tetrahydronaphthalen-2-yl)cyclopropyl]nicotinic acid, at a concentration of 10^-8 M.

RXR [2] = test: RXR binding

Ki (RXR [2]) [nM]	Structure (SMILES)	RXR transactivation test (%) (RXR [1])	AC50 (RXR [1]) [nM]
	CC1(C)CCC(C)(C)c2cc(Oc3ccc(C(=O)O)cc3)ccc21 [Example 1, 4-(5,6,7,8-tetrahydro-5,5,8,8-tetramethyl-2-naphthyloxy)benzoic acid]	33	
	CC1(C)CCC(C)(C)c2cc([S+]([O-])c3ccc(C(=O)O)cc3)ccc21 (centres unmarked) [Example 3, 4-(5,6,7,8-tetrahydro-5,5,8,8-tetramethyl-2-naphthylsulfinyl)benzoic acid]	25	
	CC1(C)CCC(C)(C)c2cc(Nc3ccc(C(=O)O)cc3)ccc21 [Example 5, 4-(5,6,7,8-tetrahydro-5,5,8,8-tetramethyl-2-naphthylamino)benzoic acid]	21	
	CC1(C)CCC(C)(C)c2cc(Sc3ccc(C(=O)O)s3)ccc21 [Example 6, 5-(5,6,7,8-tetrahydro-5,5,8,8-tetramethyl-2-naphthylthio)-2-thiophenecarboxylic acid]	39	
	Cc1cc2c(cc1Oc1ccc(C(=O)O)cc1)C(C)(C)CCC2(C)C [Example 7, 4-(3,5,5,8,8-pentamethyl-5,6,7,8-tetrahydro-2-naphthyloxy)benzoic acid]	48	355
3740	Cc1cc2c(cc1Sc1ccc(C(=O)O)cc1)C(C)(C)CCC2(C)C [Example 8, 4-(3,5,5,8,8-pentamethyl-5,6,7,8-tetrahydro-2-naphthylthio)benzoic acid]	118	300
2820	CCc1cc2c(cc1Oc1ccc(C(=O)O)cc1)C(C)(C)CCC2(C)C [Example 9, 4-(3-ethyl-5,5,8,8-tetramethyl-5,6,7,8-tetrahydro-2-naphthyloxy)benzoic acid]	108	279
2480	CC(C)c1cc2c(cc1Oc1ccc(C(=O)O)cc1)C(C)(C)CCC2(C)C [Example 10, 4-(3-isopropyl-5,5,8,8-tetramethyl-5,6,7,8-tetrahydro-2-naphthyloxy)benzoic acid]	81	495
1130	CC1(C)CCC(C)(C)c2cc(Oc3ccc(C(=O)O)cc3)c(Br)cc21 [Example 13, 4-(3-bromo-5,6,7,8-tetrahydro-5,5,8,8-tetramethyl-2-naphthyloxy)benzoic acid]	57	
	CCc1cc2c(cc1Oc1ccc(C(=O)O)cc1C)C(C)(C)CCC2(C)C [Example 16, 3-methyl-4-(3-ethyl-5,6,7,8-tetrahydro-5,5,8,8-tetramethyl-2-naphthyloxy)benzoic acid]	38	
538	Cc1cc2c(cc1Sc1ccc(C(=O)O)cn1)C(C)(C)CCC2(C)C [Example 17, 6-(3,5,5,8,8-pentamethyl-5,6,7,8-tetrahydro-2-naphthylthio)nicotinic acid]	102	48
	Cc1cc2c(cc1Sc1ccc(C(=O)O)c(Cl)c1)C(C)(C)CCC2(C)C [Example 19, 2-chloro-4-(3,5,5,8,8-pentamethyl-5,6,7,8-tetrahydro-2-naphthylthio)benzoic acid]	58	656
3950	CCc1cc2c(cc1Sc1ccc(C(=O)O)cc1)C(C)(C)CCC2(C)C [Example 20, 4-(3-ethyl-5,6,7,8-tetrahydro-5,5,8,8-tetramethyl-2-naphthylthio)benzoic acid]	41	
	Cc1cc2c(cc1Sc1ccc(CO)cc1)C(C)(C)CCC2(C)C [Example 23, 4-(3,5,5,8,8-pentamethyl-5,6,7,8-tetrahydro-2-naphthylthio)benzenemethanol]	3	
	Cc1cc2c(cc1Sc1ccc(C=O)cc1)C(C)(C)CCC2(C)C [Example 24, 4-(3,5,5,8,8-pentamethyl-5,6,7,8-tetrahydro-2-naphthylthio)benzaldehyde]	17	
	CCNC(=O)c1ccc(Sc2cc3c(cc2C)C(C)(C)CCC3(C)C)cc1 [Example 25, N-ethyl-4-(3,5,5,8,8-pentamethyl-5,6,7,8-tetrahydro-2-naphthylthio)benzamide]	15	
	Cc1cc2c(cc1Sc1ccc(C(=O)Nc3ccc(O)cc3)cc1)C(C)(C)CCC2(C)C [Example 26, N-4-hydroxyphenyl-4-(3,5,5,8,8-pentamethyl-5,6,7,8-tetrahydro-2-naphthylthio)benzamide]	14	
